Measurements reported in publication PMC3076313 (Bioorganic chemistry, 2010).
Where a chain is given by its changes, count along the chain named.

Key:
[1] = target: T1, D1625R/D1628R double mutant of p300 HAT (Homo sapiens, UniProt Q09472, D1625R/D1628R); assay: p300 HAT radioactive acetyltransferase inhibition assay, double mutant enzyme
T1 sequence (Q09472 1287-1663 D1625R/D1628R limits assumed): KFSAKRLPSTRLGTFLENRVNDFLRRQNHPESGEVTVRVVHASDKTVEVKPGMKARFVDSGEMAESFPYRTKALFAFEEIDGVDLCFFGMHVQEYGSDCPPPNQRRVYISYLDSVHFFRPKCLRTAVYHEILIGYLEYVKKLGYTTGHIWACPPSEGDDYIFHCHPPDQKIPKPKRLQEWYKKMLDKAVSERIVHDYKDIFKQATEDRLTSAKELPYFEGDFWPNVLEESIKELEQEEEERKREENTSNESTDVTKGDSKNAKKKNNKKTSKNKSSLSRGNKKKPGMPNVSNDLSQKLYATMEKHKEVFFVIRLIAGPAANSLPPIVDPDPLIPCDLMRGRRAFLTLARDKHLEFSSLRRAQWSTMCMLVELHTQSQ

[2] = target: T2, semisynthetic p300 HAT (wt p300 HAT) (Homo sapiens, UniProt Q09472); settings: 20 μM acetyl-CoA, 100 μM H4-15 peptide, 7 min pre-incubation, 30°C
T2 sequence (Q09472 1287-1663 limits assumed): T1 sequence (Q09472 1287-1663 D1625R/D1628R limits assumed) with R339D, R342D

p300 HAT = p300 HAT inhibitor; cited from earlier work

## CC(=O)N[C@@H](CCCCNC(=O)CSCCNC(=O)CCNC(=O)[C@H](O)C(C)(C)COP(=O)(O)OP(=O)(O)OC[C@H]1O[C@@H](n2cnc3c(N)ncnc32)[C@H](O)[C@@H]1OP(=O)(O)O)C(N)=O [Lys-CoA]
[1]; D1625R, D1628R p300 HAT, 20 μM acetyl-CoA, 100 μM H4-15 peptide
  IC50: 209 ± 15 nM
[1]; double mutant vs wt
  fold weakening of IC50 with D1625R/D1628R p300 HAT compared with wt p300 HAT: 3.5 fold
[2]
  IC50: 60 nM
p300 HAT
  Ki: 20 nM
